The target in the test is glucosylceramide synthase (GCS) (Homo sapiens (Human), UniProt Q16739). In words: UDP-Glo glucosylceramide synthase biochemical assay. As to conditions: endogenous GCS in Golgi preparations from human A375 malignant melanoma skin cells; C6 ceramide and UDP-glucose substrates; 20 h incubation; UDP detected by luminescence. The text has this:
UDP-Glo™ Glucosylceramide Synthase Biochemical Assay
A UDP-Glo™ glucosylceramide synthase biochemical assay was utilized to evaluate the effect of test compounds on the activity of endogenous levels of GCS enzyme contained within Golgi preparations isolated from human A375 malignant melanoma skin cells. The UDP-Glo™ glucosylceramide synthase assay uses UDP-Glucose as a nucleotide-glycosyl donor and ceramide as substrate acceptor molecules. In the reaction, glucosylceramide synthase (GCS) transfers glucose from UDP-Glucose to ceramide. Glucosylceramide and UDP are released as products.
Using Promega's UDP-Glo™ Glycosyltransferase assay kit (Promega Corporation, Madison, WI, USA (Promega)), GCS activity was indirectly measured by detecting the amount of UDP produced. An aliquot of GCS enzyme (1.5 μg crude golgi preparation, total protein) and titrated test compound were aliquoted to each well and incubated for 30 minutes at room temperature. […] An equivalent volume of substrate mixture was then added to each well. Following a 20 h incubation at room temperature to allow for GCS turnover of substrate, an equal volume of UDP detection reagent (Promega) was added to each well and incubated for an additional 75 minutes at room temperature to simultaneously convert the accumulated UDP product into ATP and generate light in a luciferase reaction. The generated light was detected using a luminometer. […] luminescence values (RLUs) were normalized to mean “min” and “max” effects, as determined on each plate. “Min” was defined as the mean of the values of the wells treated with vehicle (DMSO) and which represent 0% inhibition; “max” was defined as the mean of the values of the wells treated with a reference inhibitor and which represent the 100% effect. Values for % Emax and EC50 were determined by best-fitting the normalized data to a curve in Activity Base along a four-parameter logistic nonlinear regression (4PL) model (based on the Levenberg-Marquardt algorithm and defined by the equation below): […]
where: n is 4PMin (bottom of the curve); m is 4PMax (top of the curve); i is IP (inflection point of curve); and p is slope. See Levenberg, K., “A Method for the Solution of Certain Problems in Least Squares”, Quart. Appl. Math. 2, (1944), pp 164-168 and Marquardt, D., “An Algorithm for Least Squares Estimation on Nonlinear Parameters”, SIAM J. Appl. Math. 11, (1963) pp 431-441.
Chain of glucosylceramide synthase (GCS) (Q16739 whole entry): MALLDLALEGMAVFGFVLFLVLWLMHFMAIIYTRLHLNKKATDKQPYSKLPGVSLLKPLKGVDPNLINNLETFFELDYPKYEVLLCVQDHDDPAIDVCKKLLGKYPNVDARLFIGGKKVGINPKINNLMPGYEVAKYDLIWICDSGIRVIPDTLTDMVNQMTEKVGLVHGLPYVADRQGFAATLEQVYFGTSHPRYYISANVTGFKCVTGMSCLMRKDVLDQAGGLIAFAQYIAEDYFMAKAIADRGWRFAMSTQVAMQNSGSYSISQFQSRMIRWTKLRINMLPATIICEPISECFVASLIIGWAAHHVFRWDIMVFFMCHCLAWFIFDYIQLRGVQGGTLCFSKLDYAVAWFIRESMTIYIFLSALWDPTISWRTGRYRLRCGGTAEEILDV
On to `O=C(c1cn2cc(C(F)(F)F)cc(-c3ccccc3OCC(F)(F)F)c2n1)N1CCOC2(COC2)C1` [Compound 51, (2,5-dioxa-8-azaspiro[3.5]nonan-8-yl)(8-(2-(2,2,2-trifluoroethoxy)phenyl)-6-(trifluoromethyl)imidazo[1,2-a]pyridin-2-yl)methanone], for which the EC50 (in general, the concentration giving half of the maximal effect) came to 0.51 nM. Compound `O=C(NCc1ccccn1)c1cn2cccc(-c3ccccc3OCC(F)(F)F)c2n1` [Compound 52, N-(pyridin-2-ylmethyl)-8-(2-(2,2,2-trifluoroethoxy)phenyl)imidazo[1,2-a]pyridine-2-carboxamide] gave an EC50 of 13 nM. `CC1(C)OCC1NC(=O)c1cn2cccc(-c3ccccc3OCC(F)(F)F)c2n1` (stereo not shown) [Compound 53, N-(2,2-dimethyloxetan-3-yl)-8-(2-(2,2,2-trifluoroethoxy)phenyl)imidazo[1,2-a]pyridine-2-carboxamide] had an EC50 of 30 nM.

Compound `CN(CCN1CCCC1)C(=O)c1cn2cccc(-c3ccccc3OCC(F)(F)F)c2n1` [Compound 54, N-methyl-N-(2-(pyrrolidin-1-yl)ethyl)-8-(2-(2,2,2-trifluoroethoxy)phenyl)imidazo[1,2-a]pyridine-2-carboxamide] gave an EC50 of 3 nM. `O=C(c1cn2cccc(-c3ccccc3OCC(F)(F)F)c2n1)N1CCn2ccnc2C1` [Compound 55, (5,6-dihydroimidazo[1,2-a]pyrazin-7(8H)-yl)(8-(2-(2,2,2-trifluoroethoxy)phenyl)imidazo[1,2-a]pyridin-2-yl)methanone] displayed an EC50 of 2.9 nM.

`Cc1ccncc1NC(=O)c1cn2cccc(-c3ccccc3OCC(F)(F)F)c2n1` [Compound 56, N-(4-methylpyridin-3-yl)-8-(2-(2,2,2-trifluoroethoxy)phenyl)imidazo[1,2-a]pyridine-2-carboxamide] came in with a half-maximal effective concentration (EC50) of 0.15 nM. `O=C(Nc1cnccc1F)c1cn2cccc(-c3ccccc3OCC(F)(F)F)c2n1` [Compound 57, N-(4-fluoropyridin-3-yl)-8-(2-(2,2,2-trifluoroethoxy)phenyl)imidazo[1,2-a]pyridine-2-carboxamide] yielded an EC50 of 0.45 nM. The value for `O=C(Nc1ccc[n+]([O-])c1)c1cn2cccc(-c3ccccc3OCC(F)(F)F)c2n1` [Compound 58, 3-(8-(2-(2,2,2-trifluoroethoxy)phenyl)imidazo[1,2-a]pyridine-2-carboxamido)pyridine-1-oxide] was 28 nM; that for `N#Cc1cnccc1NC(=O)c1cn2cccc(-c3ccccc3OCC(F)(F)F)c2n1` [Compound 59, N-(3-cyanopyridin-4-yl)-8-(2-(2,2,2-trifluoroethoxy)phenyl)imidazo[1,2-a]pyridine-2-carboxamide] was 6 nM; that for `O=C(c1cn2cc(Cl)cc(-c3ccccc3OCC(F)(F)F)c2n1)N1C[C@H]2C(CO)[C@@H]2C1` (stereo partly drawn) [Compound 60, (6-chloro-8-(2-(2,2,2-trifluoroethoxy)phenyl)imidazo[1,2-a]pyridin-2-yl)((1R,5R)-6-(hydroxymethyl)-3-azabicyclo[3.1.0]hexan-3-yl)methanone] was 30 nM. `O=C(Nc1cccnc1)c1cn2cc(F)cc(-c3ccccc3OCC(F)(F)F)c2n1` [Compound 61, 6-fluoro-N-(pyridin-3-yl)-8-(2-(2,2,2-trifluoroethoxy)phenyl)imidazo[1,2-a]pyridine-2-carboxamide] gave an EC50 of 0.083 nM.

With `OCc1cn2cc(C(F)(F)F)cc(-c3ccccc3OCC(F)(F)F)c2n1` [Compound 62, (8-(2-(2,2,2-trifluoroethoxy)phenyl)-6-(trifluoromethyl)imidazo[1,2-a]pyridin-2-yl)methanol], the EC50 was 17 nM. In turn, `CC(O)c1cn2cc(Cl)cc(-c3ccccc3OCC(F)(F)F)c2n1` (stereo not shown) [Compound 64, 1-[6-chloro-8-[2-(2,2,2-trifluoroethoxy)phenyl]imidazo[1,2-a]pyridin-2-yl]ethanol] registered an EC50 of 13 nM.

Consider `OC(c1cn2cc(Cl)cc(-c3ccccc3OCC(F)(F)F)c2n1)C1CC1` (stereo not shown) [Compound 65, [6-chloro-8-[2-(2,2,2-trifluoroethoxy)phenyl]imidazo[1,2-a]pyridin-2-yl]-cyclopropyl-methanol], for which the EC50 was determined as 1.3 nM. `CC(C)(O)c1cn2cc(Cl)cc(-c3ccccc3OCC(F)(F)F)c2n1` [Compound 66, 2-(6-chloro-8-(2-(2,2,2-trifluoroethoxy)phenyl)imidazo[1,2-a]pyridin-2-yl)propan-2-ol] showed an EC50 of 15 nM.

`CC(C)(O)c1cn2cc(Cl)cc(-c3ccc(F)cc3OCC(F)(F)F)c2n1` [Compound 67, 2-(6-chloro-8-(4-fluoro-2-(2,2,2-trifluoroethoxy)phenyl)imidazo[1,2-a]pyridin-2-yl) propan-2-ol]: the EC50 is 67 nM. `OC(c1cn2cc(F)cc(-c3ccccc3OCC(F)(F)F)c2n1)C1CCOCC1` (stereo not shown) [Compound 68, (6-fluoro-8-(2-(2,2,2-trifluoroethoxy)phenyl)imidazo[1,2-a]pyridin-2-yl)(tetrahydro-2H-pyran-4-yl)methanol] had an EC50 of 10 nM.

In turn, `CC1(C)CN=C(c2cn3cc(Cl)cc(-c4ccccc4OCC(F)(F)F)c3n2)O1` [Compound 69, 2-(6-chloro-8-(2-(2,2,2-trifluoroethoxy)phenyl)imidazo[1,2-a]pyridin-2-yl)-5,5-dimethyl-4,5-dihydrooxazole] displayed an EC50 of 15 nM. `CN1CC2(CN=C(c3cn4cc(Cl)cc(-c5ccccc5OCC(F)(F)F)c4n3)O2)C1` [Compound 70, 6-[6-chloro-8-[2-(2,2,2-trifluoroethoxy)phenyl]imidazo[1,2-a]pyridin-2-yl]-2-methyl-5-oxa-2,7-diazaspiro[3.4]oct-6-ene] displayed an EC50 of 0.061 nM. The compound `CC1(CO)CN=C(c2cn3cc(Cl)cc(-c4ccccc4OCC(F)(F)F)c3n2)O1` (stereo not shown) [Compound 71, (2-(6-chloro-8-(2-(2,2,2-trifluoroethoxy)phenyl)imidazo[1,2-a]pyridin-2-yl)-5-methyl-4,5-dihydrooxazol-5-yl)methanol] registered an EC50 of 16 nM. Turning to `OCC1COC(c2cn3cc(Cl)cc(-c4ccccc4OCC(F)(F)F)c3n2)=N1` (stereo not shown) [Compound 72, [2-[6-chloro-8-[2-(2,2,2-trifluoroethoxy)phenyl]imidazo[1,2-a]pyridin-2-yl]-4,5-dihydrooxazol-4-yl]methanol], the EC50 amounted to 7.9 nM. On to `CC1(CO)COC(c2cn3cc(Cl)cc(-c4ccccc4OCC(F)(F)F)c3n2)=N1` (stereo not shown) [Compound 73, [2-[6-chloro-8-[2-(2,2,2-trifluoroethoxy)phenyl]imidazo[1,2-a]pyridin-2-yl]-4-methyl-5H-oxazol-4-yl]methanol], for which the EC50 stood at 32 nM. Compound `NCC1CN=C(c2cn3cc(Cl)cc(-c4ccccc4OCC(F)(F)F)c3n2)O1` (stereo not shown) [Compound 74, (2-(6-chloro-8-(2-(2,2,2-trifluoroethoxy)phenyl)imidazo[1,2-a]pyridin-2-yl)-4,5-dihydrooxazol-5-yl)methanamine] registered an EC50 of 12 nM. The compound `CC(C)(O)C1COC(c2cn3cc(Cl)cc(-c4ccccc4OCC(F)(F)F)c3n2)=N1` (stereo not shown) [Compound 75, 2-(2-(6-chloro-8-(2-(2,2,2-trifluoroethoxy)phenyl)imidazo[1,2-a]pyridin-2-yl)-4,5-dihydrooxazol-4-yl)propan-2-ol] came in with an EC50 of 30 nM. The same measure for `CC(C)(O)C1CN=C(c2cn3cc(Cl)cc(-c4ccccc4OCC(F)(F)F)c3n2)O1` (stereo not shown) [Compound 76, 2-[2-[6-chloro-8-[2-(2,2,2-trifluoroethoxy)phenyl]imidazo[1,2-a]pyridin-2-yl]-4,5-dihydrooxazol-5-yl]propan-2-ol]: 13 nM.

The record behind these values is patent US20240018140A1, “MODIFIED IMIDAZOPYRIDINES AS GLUCOSYLCERAMIDE SYNTHASE INHIBITORS” (Merck Sharp & Dohme LLC, priority 2020, published 2024).
